Measured values: patent US9988680B2, “Non-natural nucleosides as theranostic agents” (Case Western Reserve University, priority 2011, dated 2018)

Experiments:
[1] = target: terminal deoxynucleotidyl transferase (TdT) (Bos taurus, UniProt P06526); assay: Incorporation of natural and non-natural nucleotides by TdT (polymerization assay, Michaelis-Menten kinetics); format: biochemical; settings: for Km / Vmax: incorporation by TdT, 1.5 μM single-stranded DNA substrate
Method: All enzymatic assays were performed as previously described. […] Reactions were quenched with 200 Mm EDTA at variable times (5-600 s) and analyzed using denaturing gel electrophoresis. Time courses in product formation were fitted using eq 1: Y=mt+b(1) (1)
where y is the amount of product, m is the rate of the reaction, t is time, and b is the Y-intercept. Km and Vmax values were determined by fits of the data points to the Michaelis-Menten equation: […]
where Vmax is the maximal rate of nucleotide incorporation, Km is the Michaelis constant for dNTP, and [dNTP] is the concentration of nucleotide substrate. The IC50 value for 3-Eth-5-NITP was obtained using a nonlinear regression curve fit of the data to eq 3:
The biological function of TdT is to expand immunological diversity by randomly incorporating dNTPs into single-stranded DNA during V(D)J recombination. […] TdT also utilizes nucleotide analogues including 2′,3′-dideoxynucleotides, dinucleoside 5′,5′-tetraphosphates, and intrinsically fluorescent nucleotide analogues. In this report, we tested if TdT also incorporates indolyl-2′-deoxyribose-5′-triphosphates that bear non-natural moieties such as ethynyl and nitro groups at the 3- and 5-position, respectively, of the indole base. […] Aliquots of the reaction were quenched with EDTA at variable time points, and the polymerization reactions were then subjected to denaturing polyacrylamide gel electrophoresis to separate extended primers from unreacted substrate.
Time courses in product formation were generated using pseudo-first order reaction conditions in which 6 units of TdT were incubated with 1.5 μM DNA substrate and mixed with variable concentrations of non-natural nucleotide (0.05-50 μM). Each time course was fit to an equation for a straight line to define the rate of nucleotide incorporation (data not shown).

MOLT4 cells = assay: In situ click reaction with AlexaFluor488-azide, flow cytometry, MOLT4; format: cell-based; settings: MOLT4, 10 μM, 2 days
Method: (§1) In situ “click” reactions were performed using cells harvested after 2 days of treatment with DMSO, 3-Eth-5-NIdR (10, 40, or 100 μg mL^−1), 5-NIdR (100 μg mL^−1) or 5-ethynyl-2′-deoxyuridine (EdU) (10 μM). All cells were fixed with cold methanol. Under minimal lighting, cells were treated with 0.3 mL of saponin-based permeabilization and wash buffer for 45 min at 37° C. Click reactions were initiated by adding the click-iT reaction cocktail according to the instructions of the manufacturer (Invitrogen) followed by incubation at 37° C. for 90 min. Cells were then washed two times with saponin-based permeabilization and wash buffer. Cell pellets were dislodged using 0.5 mL solution of 10 μg mL^−1 PI and RNAase A in saponin-based permeabilization and wash buffer and then incubated for at least 15 min prior to flow cytometry analysis.
MOLT4 cells were treated with DMSO, EdU (a “clickable” thymidine analogue), 5-NIdR, and 3-Eth-5-NIdR for 2 days and then washed with PBS to remove any nucleoside and/or nucleotide not incorporated into DNA. After fixation and permeabilization, the cells were treated with AlexaFluor488-azide and Cu(I) catalyst to commence “clicking” of any incorporated nonnatural nucleotide. Dual parameter flow cytometry applying PI staining coupled with detection of the AlexaFluor488 fluorophore was used to detect the “clicked” non-natural nucleotide in cellular DNA. […] This high amount of “clicked” DNA reflects transport of EdU into the cell, conversion to the corresponding nucleoside triphosphate, and incorporation into the DNA of replicating cells. MOLT4 cells treated with 10 μg mL^−1 3-Eth-5-NIdR also show appreciable levels of AlexaFluor488 stained DNA (2.8%) after 2 days of treatment. Furthermore, the amount of “clicked” DNA is dosedependent as treatment with 40 μg mL^−1 Eth-5-NIdR yields a […] increase in AlexaFluor488 staining (6.5%). Identical experiments were performed using the Loucy cell line that lacks TdT and thus is less sensitive to the cytotoxic effects of the non-natural nucleoside (vide inf ra). […] Treatment with 40 μg mL^−1 of 3-Eth-5-NIdR produces low levels of “clicked” DNA (0.02%). […] Once incorporated into DNA, the non-natural nucleotide inhibits cellular DNA replication and induces apoptosis. Finally, it should be emphasized that low levels (<0.5%) of AlexaFluor488 staining are detected in cells treated with 100 μg mL^−1 5-NIdR.

Loucy cells = assay: In situ click reaction with AlexaFluor488-azide, flow cytometry, Loucy; format: cell-based; settings: 10 μM, 2 days
Method: as §1
MOLT4 cells were treated with DMSO, EdU (a “clickable” thymidine analogue), 5-NIdR, and 3-Eth-5-NIdR for 2 days and then washed with PBS to remove any nucleoside and/or nucleotide not incorporated into DNA. After fixation and permeabilization, the cells were treated with AlexaFluor488-azide and Cu(I) catalyst to commence “clicking” of any incorporated nonnatural nucleotide. […] Finally, it should be emphasized that low levels (<0.5%) of AlexaFluor488 staining are detected in cells treated with 100 μg mL^−1 5-NIdR.

Sequence of terminal deoxynucleotidyl transferase (TdT) (P06526 whole entry): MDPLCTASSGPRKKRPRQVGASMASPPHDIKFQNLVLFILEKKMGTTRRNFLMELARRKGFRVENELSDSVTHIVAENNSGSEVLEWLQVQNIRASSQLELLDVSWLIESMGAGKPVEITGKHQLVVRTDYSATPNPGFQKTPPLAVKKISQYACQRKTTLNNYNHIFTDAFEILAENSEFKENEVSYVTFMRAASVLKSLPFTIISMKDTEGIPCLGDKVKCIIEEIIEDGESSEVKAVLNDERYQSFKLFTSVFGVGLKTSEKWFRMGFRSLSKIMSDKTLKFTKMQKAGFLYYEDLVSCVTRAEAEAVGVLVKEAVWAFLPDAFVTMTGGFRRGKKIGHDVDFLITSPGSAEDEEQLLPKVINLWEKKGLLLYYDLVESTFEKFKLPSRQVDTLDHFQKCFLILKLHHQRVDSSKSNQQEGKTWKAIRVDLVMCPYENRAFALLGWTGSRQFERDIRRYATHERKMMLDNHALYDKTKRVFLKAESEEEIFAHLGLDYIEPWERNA

Row | Km ([1]; 6 units TdT) [µM] | Vmax ([1]; 6 units TdT) [nM/s] | extension by TdT beyond the incorporated nucleotide ([1]; 100 μM nucleotide, 14-mer DNA, gel (FIG. 2B)) | SMILES | AlexaFluor488 stained (clicked) DNA (MOLT4 cells) [%] | AlexaFluor488 staining (clicked DNA) (Loucy cells) [%] | utilization by TdT (elongation of 14-mer DNA substrate) ([1]; 100 μM nucleotide, 6 units TdT, 1.5 μM 14-mer (FIG. 2B))
1 | 8 ± 0.9 | 29.2 ± 1.1 | – | Nc1nc2c(ncn2[C@H]2C[C@H](O)[C@@H](COP(=O)(O)OP(=O)(O)OP(=O)(O)O)O2)c(=O)[nH]1 [dGTP] | – | – | –
2 | – | – | – | C#Cc1cn([C@H]2C[C@H](O)[C@@H](CO)O2)c(=O)[nH]c1=O [EdU, 5-ethynyl-2′-deoxyuridine, reference compound] | 36.1 | 59.2 | –
3 | 4.6 ± 0.6 | 11.5 ± 0.4 | rivals that of the natural purines | O=[N+]([O-])c1ccc2c(ccn2C2CC(O)C(COP(=O)(O)OP(=O)(O)OP(=O)(O)O)O2)c1 (centres unmarked) [5-NITP] | – | – | utilized by TdT as efficiently as the natural purines
